Data reported in US12466838B2, “Crystalline form of a multi-tyrosine kinase inhibitor, method of preparation, and use thereof” (Mirati Therapeutics, Inc., priority 2019, dated 2025).
“Also recorded” adds a separate entry of the source. Values belong to the molecule of their own block, whether it stands above or below them.

Experiments:
[1] = Drying experiments (non-solvent based), solid form by XRPD; format: physicochemical; conditions: Vacuum oven drying, ~40° C., 2.5
Experimental: (§1) XRPD patterns were collected with a PANalytical X'Pert PRO MPD diffractometer using an incident beam of Cu radiation produced using an Optix long, fine-focus source. An elliptically graded multilayer mirror was used to focus Cu Kα X-ray radiation through the specimen and onto the detector. Prior to the analysis, a silicon specimen (NIST SRM 640d) was analyzed to verify the observed position of the Si (111) peak is consistent with the NIST-certified position. A specimen of the sample was sandwiched between 3-μm-thick films and analyzed in transmission geometry. A beam-stop, short antiscatter extension, and antiscatter knife edge, were used to minimize the background generated by air. Soller slits for the incident and diffracted beams were used to minimize broadening from axial divergence. Diffraction patterns were collected using a scanning position-sensitive detector (X'Celerator) located 240 mm from the specimen and Data Collector software v. 2.2b.
Limited non-solvent based experiments were conducted with materials generated during the stable form screen and included short term vacuum drying at elevated temperature.

[2] = Slurry interconversion experiments, solid form by XRPD; format: physicochemical; conditions: slurry of Forms C, D, and H in ethyl acetate
Experimental: as §1
To investigate the relationship between selected materials produced during screening, limited slurry interconversion experiments were conducted. The experiments were performed by slurring seeds of solids of interest at ambient temperature in two different solvent systems. All materials were vacuum dried prior to the slurry (˜40° C., ˜2.5 hours). Solvent conditions were selected to achieve sufficient solubility of materials tested. […]

[3] = tested on: human xenograft tumor models; conditions: multiple human xenograft tumor models in mice; cited from earlier work
[4] = tested on: tyrosine kinases, including RET, CBL, CHR4q12, DDR and Trk; conditions: cited from earlier work
[5] = Preliminary physical stability assessment of Form D, XRPD; format: physicochemical
Experimental: as §1, with “2.2b. Preliminary physical stability assessment of Form D was performed. […] The XRPD patterns of the stressed materials show no significant peak shifts compared to the untreated samples. The XRPD pattern of Form D obtained from high water activity slurry is consistent with the pattern of the untreated material. However, small shifts of selected peaks were observed, possibly due to hydration.” for “2.2b.”

XRPD Results after drying [1]: Form H
relative thermodynamic stability among Forms C, D and H [2]: least thermodynamically stable
SMILES: COCCNCc1ccc(-c2cc3nccc(Oc4ccc(NC(=O)C5(C(=O)Nc6ccc(F)cc6)CC5)cc4F)c3s2)nc1 [Form H, N-(3-fluoro-4-((2-(5-(((2-methoxyethyl)amino)methyl)pyridin-2-yl)thieno[3,2-b]pyridin-7-yl)oxy)phenyl)-N-(4-fluorophenyl)cyclopropane-1,1-dicarboxamide]

SMILES: COCCNCc1ccc(-c2cc3nccc(Oc4ccc(NC(=O)C5(C(=O)Nc6ccc(F)cc6)CC5)cc4F)c3s2)nc1 [Compound 1, N-(3-fluoro-4-((2-(5-(((2-methoxyethyl)amino)methyl)pyridin-2-yl)thieno[3,2-b]pyridin-7-yl)oxy)phenyl)-N-(4-fluorophenyl)cyclopropane-1,1-dicarboxamide]
tumor regression [3]: shows tumor regression
inhibition of a closely related spectrum of tyrosine kinases [4]: potent inhibition

SMILES: COCCNCc1ccc(-c2cc3nccc(Oc4ccc(NC(=O)C5(C(=O)Nc6ccc(F)cc6)CC5)cc4F)c3s2)nc1 [Form D]
XRPD Results (physical stability) ([5]; Acetone/water (40/60), slurry, RT): Consistent with Form D, slight peak shifts
XRPD Results (physical stability) ([5]; EtOH/water (40/60), slurry, RT): Consistent with Form D, slight peak shifts
XRPD Results (physical stability) ([5]; Water, slurry, RT): Consistent with Form D, slight peak shifts
XRPD Results (physical stability) ([5]; ~43% RH/RT): remained unchanged; also recorded: Consistent with Form D, no significant shifts of peaks
XRPD Results (physical stability) ([5]; ~75% RH/RT): remained unchanged; also recorded: Consistent with Form D, no significant shifts of peaks
XRPD Results after drying [1]: remained unchanged; also recorded: Form D

XRPD Results after drying [1]: Form C
SMILES: COCCNCc1ccc(-c2cc3nccc(Oc4ccc(NC(=O)C5(C(=O)Nc6ccc(F)cc6)CC5)cc4F)c3s2)nc1 [Form C, N-(3-fluoro-4-((2-(5-(((2-methoxyethyl)amino)methyl)pyridin-2-yl)thieno[3,2-b]pyridin-7-yl)oxy)phenyl)-N-(4-fluorophenyl)cyclopropane-1,1-dicarboxamide]
